Test results reported in patent US20090221697A1, “MACROLIDE CONJUGATES OF PYRROLIZINE AND INDOLIZINE COMPOUNDS AS INHIBITORS OF 5-LIPOOXYGENASE AND CYCLOOXYGENASE” (MERCKLE GMBH, priority 2005, published 2009).

What was measured:
[1] = test system: collagen-induced arthritis in DBA J1 mice; test: Collagen-induced arthritis (bovine collagen), further experiment, p.o. once daily (Table 3); type: in vivo; settings: vehicle = 100%
Experimental: (§1) Efficacy of drugs in suppressing arthritis may be determined using animal models. The collagen-induced arthritis in rodents is a well established experimental model of rheumatoid arthritis and considered appropriate to test the efficacy of anti-inflammatory drugs. The model is performed by immunising animals with exogenous collagen (e.g. bovine or chick) and administering substances following the appearance of disease. Disease may be boosted to increase response. The data reported herein were generated using the murine model in DBA J1 mice. At day zero a collagen suspension in complete Freund's adjuvant was injected s.c. at the tail base. At day 20, collagen in incomplete Freund's adjuvant was injected at a nearby position on the tail base. When arthritis developed, animals were randomly assigned to treatment groups. Signs monitored included weight, paw score, paw thickness and overall condition. Animals were observed and treated for 10 days. Macrolide conjugates were formulated as solutions in 1.5% citrate, 6% fructose in water.
In a further experiment Arthritis was induced using bovine collagen as described above. Animals were treated with compounds p.o. once daily following positive development of disease. Comparison with control animals (untreated) was made at 9 days after treatment.

[2] = test system: collagen-induced arthritis in DBA J1 mice; test: Collagen-induced arthritis, arthritic score (Table 2); type: in vivo; parameters: key: −: healthy paw; +: one joint inflamed; ++: two types of joint inflamed (e.g. tarsal and digit); +++: inflammation of three joints in two separate parts of the paw; ++++: inflammation of whole paw; settings: treated for 10 days after arthritis developed
Experimental: as §1

blood cells = test: Uptake of conjugates into blood cells (buffy coat preparations), LC/MS; type: in vitro ADME; parameters: key: −: excluded from blood cells; +: equal or similar; ++: >5-fold enhancement in blood cells; +++: >10-fold enhancement in blood cells; settings: substrates 1 to 10 μM, 37° C., 5% CO2, screening samples at 0 and 120 minutes
Experimental: Freshly drawn heparinised blood or buffy coat preparations are used for the determination of conjugate uptake. Buffy coat preparations are preferred. They may be obtained from donor blood by simple centrifugation of whole blood (4795 g for 10 minutes). Following centrifugation, plasma is collected from the surface, after which immune cells are expressed from the donor bags along with the erythrocytes lying immediately below the leukocyte layer. This ensures high yields and a sufficient population of erythrocytes for partition. 5 ml of the resulting cell suspension are dispensed into T25 culture flasks. Substrates are added to a final concentration between 1 and 10 μM and the suspensions incubated at 37° C., in a 5% CO2 atmosphere. For analysis of uptake kinetics, samples are drawn at 0, 2, 5, 10, 30, 60, 90, 180, or 240 min after substrate addition. For screening purposes, samples are taken at 0 and 120 minutes.
Cell fractions were prepared using density gradient centrifugation. Mononuclear cells and polymorphonuclear cells are separated from erythrocytes essentially by layering the cell suspension on a viscous medium typically composed of a solution containing Ficoll or similar (commercial suppliers include: Lymphoprep, Axis Shield, 1031966; Lymphoflot HLA, 824010; or PMN Separation Medium Robbins Scientific 1068-00-0). The layered suspension is then centrifuged at 600 g, 20 min, after which the cell fractions and the plasma (incubation medium) fraction are removed by gentle aspiration, washed twice in PBS buffer, followed by estimation of the cell number and pellet volume.
Uptake of compounds is monitored using chromatographic analysis (LC/MS) with mass selective detection. Uptake is also normalized to the amount of cells based on both estimated volume and total protein. […] The supernatant is recovered and sub-sampled for protein and DNA content. Protein in the supernatant is precipitated by bringing the solution to 100% v/v ethanol and centrifuging again at 16100 g, 10 min. Compound uptake is normalized according to cytoplasmic volume of cells in order to obtain the average concentration in the cells. Cell volume is estimated by correlation of DNA, protein or haem content of lysed cell aliquots to cell number and packed volume prior to lysis.

[3] = dose 132 μmol/kg p.o. once daily
[4] = dose 66 μmol/kg p.o. once daily

Row | Structure (SMILES) | relative score at day 9 after onset of arthritis [1, 3] [%] | relative score at day 9 after onset of arthritis [1, 4] [%] | arthitic score [2] | Ratio internal over external concentration (blood cells)
1 | CC1(C)Cc2c(-c3ccccc3)c(-c3ccc(Cl)cc3)c(CC(=O)O)n2C1 [Active moiety alone, licofelone, reference compound] | 90 |  |  | 
2 | CC[C@H]1OC(=O)[C@H](C)[C@@H](O)[C@H](C)[C@@H](O[C@@H]2O[C@H](C)C[C@H](N(C)C)[C@H]2OC(=O)Cc2c(-c3ccc(Cl)cc3)c(-c3ccccc3)c3n2CC(C)(C)C3)[C@](C)(O)C[C@@H](C)CN(C)[C@H](C)[C@@H](O)[C@]1(C)O [Compound 2] |  | 44 |  | 
3 | CC[C@H]1OC(=O)[C@H](C)C(=O)[C@H](C)[C@@H](O[C@@H]2O[C@H](C)C[C@H](N(C)C)[C@H]2OC(=O)Cc2c(-c3ccc(Cl)cc3)c(-c3ccccc3)c3n2CC(C)(C)C3)[C@](C)(O)C[C@@H](C)CN(C)[C@H](C)[C@@H](O)[C@]1(C)O [Compound 4] | 33 | 76 |  | 
4 | CC[C@H]1OC(=O)[C@H](C)C(=O)[C@H](C)[C@@H](O[C@@H]2O[C@H](C)C[C@H](N(C)C)[C@H]2OC(=O)Cc2c(-c3cc4ccccc4o3)c(-c3ccccc3)c3n2CC(C)(C)C3)[C@](C)(O)C[C@@H](C)CN(C)[C@H](C)[C@@H](O)[C@]1(C)O [Compound 5] |  |  | − | +++ (>10-fold enhancement in blood cells)
5 | CC[C@H]1OC(=O)[C@H](C)C(=O)[C@H](C)[C@@H](O[C@@H]2O[C@H](C)C[C@H](N(C)C)[C@H]2OC(=O)Cc2c(-c3ccc(Cl)s3)c(-c3ccccc3)c3n2CC(C)(C)C3)[C@](C)(O)C[C@@H](C)CN(C)[C@H](C)[C@@H](O)[C@]1(C)O [Compound 8] |  |  | + | ++ (>5-fold enhancement in blood cells)
6 | CC[C@H]1OC(=O)[C@H](C)C2O[C@](C)(C[C@@H](C)CN(C)[C@H](C)[C@@H](O)[C@]1(C)O)[C@H](O[C@@H]1O[C@H](C)C[C@H](N(C)C)[C@H]1OC(=O)Cc1c(-c3ccc(Cl)cc3)c(-c3ccccc3)c3n1CC(C)(C)C3)[C@H]2C [Compound 9] | 14 | 67 |  | 
7 | CC1(C)Cc2c(-c3ccccc3)c(-c3cc4ccccc4o3)c(CC(=O)O)n2C1 [Drug component of 5 (without macrolide), (2-benzofuran-2-yl-6,6-dimethyl-1-phenyl-6,7-dihydro-5H-pyrrolizin-3-yl)-acetic acid, reference compound] |  |  | ++++ | +
8 | CC1(C)Cc2c(-c3ccccc3)c(-c3ccc(Cl)s3)c(CC(=O)O)n2C1 [Drug component of 8 (without macrolide), [2-(5-chloro-thiophen-2-yl)-6,6-dimethyl-1-phenyl-6,7-dihydro-5H-pyrrolizin-3-yl]-acetic acid, reference compound] |  |  | ++ | +
